Data from ChEMBL document CHEMBL3091360, “Homosecoiridoid alkaloids with amino acid units from the flower buds of Lonicera japonica” (J Nat Prod, 2013).
The source made the active and inactive calls. The calls are words filed in the database; no cut-off is given here.

Experiments:
KETR3 = experiment: Cytotoxicity against human Ketr3 cells at 10 uM after 96 hrs by MTT assay; type: functional, cell-based
A549 = experiment: Cytotoxicity against human A549 cells at 10 uM after 96 hrs by MTT assay; type: functional, cell-based
[1] = test system: Human immunodeficiency virus 1; experiment: Antiviral activity against HIV1 infected in human 293T cells expressing VSV-G assessed as inhibition of viral p24 production at 10 uM after 48 hrs by ELISA; type: functional, organism-based
BGC-823 = experiment: Cytotoxicity against human BGC823 cells at 10 uM after 96 hrs by MTT assay; type: functional, cell-based
MCF7 = experiment: Cytotoxicity against human MCF7 cells at 10 uM after 96 hrs by MTT assay; type: functional, cell-based
[2] = Antiinflammatory activity in rat polymorphonuclear leukocytes assessed as inhibition of PAF-induced release of glucuronidase at 10 uM; type: functional
HCT-8 = experiment: Cytotoxicity against human HCT8 cells at 10 uM after 96 hrs by MTT assay; type: functional, cell-based
Bel-7402 = experiment: Cytotoxicity against human Bel7402 cells at 10 uM after 96 hrs by MTT assay; type: functional, cell-based

COC(=O)[C@]1(O)C[C@@H](O)[C@@H](O)[C@H](OC(=O)/C=C/c2ccc(O)c(O)c2)C1 [CHLOROGENIC ACID METHYL ESTER]
Activity (KETR3): inactive
Activity (A549): inactive
inhibition [1]: inactive
Activity (BGC-823): inactive
Activity (MCF7): inactive
inhibition at 10 µM [2]: < 30%
Activity (HCT-8): inactive
Activity (Bel-7402): inactive

C=C[C@H]1[C@H](O[C@@H]2O[C@H](CO)[C@@H](O)[C@H](O)[C@H]2O)OC=C(C(=O)[O-])[C@H]1/C=C/c1cc(C(=O)O)c[n+]([C@H](C(=O)O)[C@@H](C)CC)c1
Activity (KETR3): inactive
Activity (A549): inactive
inhibition [1]: inactive
Activity (BGC-823): inactive
Activity (MCF7): inactive
inhibition at 10 µM [2]: < 30%
Activity (HCT-8): inactive
Activity (Bel-7402): inactive

COc1cc(C(=O)O)ccc1O[C@@H]1O[C@H](COC(=O)c2ccccc2)[C@@H](O)[C@H](O)[C@H]1O
Activity (KETR3): inactive
Activity (A549): inactive
inhibition [1]: inactive
Activity (BGC-823): inactive
Activity (MCF7): inactive
inhibition at 10 µM [2]: < 30%
Activity (HCT-8): inactive
Activity (Bel-7402): inactive

C=C[C@H]1[C@H](O[C@@H]2O[C@H](CO)[C@@H](O)[C@H](O)[C@H]2O)OC=C(C(=O)OC)[C@H]1/C=C/CC(=O)OC
Activity (KETR3): inactive
Activity (A549): inactive
inhibition [1]: inactive
Activity (BGC-823): inactive
Activity (MCF7): inactive
inhibition at 10 µM [2]: < 30%
Activity (HCT-8): inactive
Activity (Bel-7402): inactive

O=C(/C=C/c1ccc(O)c(O)c1)O[C@H]1[C@H](O)C[C@@](O)(C(=O)O)C[C@H]1O
Activity (KETR3): inactive
Activity (A549): inactive
inhibition [1]: inactive
Activity (BGC-823): inactive
Activity (MCF7): inactive
inhibition at 10 µM [2]: < 30%
Activity (HCT-8): inactive
Activity (Bel-7402): inactive

O=C(O)/C=C/c1ccc(O[C@@H]2O[C@H](CO)[C@@H](O)[C@H](O)[C@H]2O)c(O)c1
Activity (KETR3): inactive
Activity (A549): inactive
inhibition [1]: inactive
Activity (BGC-823): inactive
Activity (MCF7): inactive
inhibition at 10 µM [2]: < 30%
Activity (HCT-8): inactive
Activity (Bel-7402): inactive

O=C(O)c1cc(O[C@@H]2O[C@H](CO)[C@@H](O)[C@H](O)[C@H]2O)ccc1O
Activity (KETR3): inactive
Activity (A549): inactive
inhibition [1]: inactive
Activity (BGC-823): inactive
Activity (MCF7): inactive
inhibition at 10 µM [2]: < 30%
Activity (HCT-8): inactive
Activity (Bel-7402): inactive

C=C[C@H]1[C@H](O[C@@H]2O[C@H](CO)[C@@H](O)[C@H](O)[C@H]2O)OC=C(C(=O)[O-])[C@H]1/C=C\c1ccc[n+]([C@H](Cc2ccccc2)C(=O)O)c1
Activity (KETR3): inactive
Activity (A549): inactive
inhibition [1]: inactive
Activity (BGC-823): inactive
Activity (MCF7): inactive
inhibition at 10 µM [2]: < 30%
Activity (HCT-8): inactive
Activity (Bel-7402): inactive

COC(=O)C1=CO[C@@H](O[C@@H]2O[C@H](CO)[C@@H](O)[C@H](O)[C@H]2O)[C@H]2[C@@H]1CC(=O)[C@@H]2C
Activity (KETR3): inactive
Activity (A549): inactive
inhibition [1]: inactive
Activity (BGC-823): inactive
Activity (MCF7): inactive
inhibition at 10 µM [2]: < 30%
Activity (HCT-8): inactive
Activity (Bel-7402): inactive

COc1cc(/C=C/CO)cc(OC)c1O[C@@H]1O[C@H](CO)[C@@H](O)[C@H](O)[C@H]1O [SYRINGIN]
Activity (KETR3): inactive
Activity (A549): inactive
inhibition [1]: inactive
Activity (BGC-823): inactive
Activity (MCF7): inactive
inhibition at 10 µM [2]: < 30%
Activity (HCT-8): inactive
Activity (Bel-7402): inactive

C=C[C@H]1[C@H](O[C@@H]2O[C@H](CO)[C@@H](O)[C@H](O)[C@H]2O)OC=C(C(=O)OC)[C@H]1/C=C/c1ccc[n+]([C@@H](C)C(=O)[O-])c1
Activity (KETR3): inactive
Activity (A549): inactive
inhibition [1]: inactive
Activity (BGC-823): inactive
Activity (MCF7): inactive
inhibition at 10 µM [2]: 72.3%
Activity (HCT-8): inactive
Activity (Bel-7402): inactive

COC(=O)C1=CO[C@@H]2C[C@H]1C[C@@H]1C(C(=O)OC)=CO[C@@H](O[C@@H]3O[C@H](CO)[C@@H](O)[C@H](O)[C@H]3O)[C@@H]12
Activity (KETR3): inactive
Activity (A549): inactive
inhibition [1]: inactive
Activity (BGC-823): inactive
Activity (MCF7): inactive
inhibition at 10 µM [2]: < 30%
Activity (HCT-8): inactive
Activity (Bel-7402): inactive

O=C(O)c1ccc(O)c(O)c1 [PROTOCATECHUIC ACID]
Activity (KETR3): inactive
Activity (A549): inactive
inhibition [1]: inactive
Activity (BGC-823): inactive
Activity (MCF7): inactive
inhibition at 10 µM [2]: < 30%
Activity (HCT-8): inactive
Activity (Bel-7402): inactive

C[C@@H]1C(=O)O[C@H]2[C@H](O)[C@@]34[C@H]5C[C@@H](C(C)(C)C)[C@]36[C@@H](OC(=O)[C@@H]6O)O[C@@]4(C(=O)O5)[C@@]12O [GINKOLIDE B]
Activity (KETR3): inactive
Activity (A549): inactive
inhibition [1]: inactive
Activity (BGC-823): inactive
Activity (MCF7): inactive
inhibition at 10 µM [2]: 78%
Activity (HCT-8): inactive
Activity (Bel-7402): inactive

O=C(/C=C/c1ccc(O)c(O)c1)O[C@@H]1C[C@@](O)(C(=O)O)C[C@@H](O)[C@H]1O
Activity (KETR3): inactive
Activity (A549): inactive
inhibition [1]: inactive
Activity (BGC-823): inactive
Activity (MCF7): inactive
inhibition at 10 µM [2]: < 30%
Activity (HCT-8): inactive
Activity (Bel-7402): inactive

C=C[C@H]1[C@H](O[C@@H]2O[C@H](CO)[C@@H](O)[C@H](O)[C@H]2O)OC=C(C(=O)OC)[C@H]1/C=C/c1cc(C(=O)O)c[n+]([C@H](C(=O)[O-])C(C)C)c1
Activity (KETR3): inactive
Activity (A549): inactive
inhibition [1]: inactive
Activity (BGC-823): inactive
Activity (MCF7): inactive
inhibition at 10 µM [2]: < 30%
Activity (HCT-8): inactive
Activity (Bel-7402): inactive

O=C(/C=C/c1ccc(O)c(O)c1)O[C@@H]1C[C@](O)(C(=O)O)C[C@@H](O)[C@H]1O [CHLOROGENIC ACID]
Activity (KETR3): inactive
Activity (A549): inactive
inhibition [1]: inactive
Activity (BGC-823): inactive
Activity (MCF7): inactive
inhibition at 10 µM [2]: < 30%
Activity (HCT-8): inactive
Activity (Bel-7402): inactive

C=C[C@H]1[C@H](O[C@@H]2O[C@H](CO)[C@@H](O)[C@H](O)[C@H]2O)OC=C(C(N)=O)[C@H]1/C=C/c1ccc[n+]([C@@H](CCC(=O)O)C(=O)[O-])c1
Activity (KETR3): inactive
Activity (A549): inactive
inhibition [1]: inactive
Activity (BGC-823): inactive
Activity (MCF7): inactive
inhibition at 10 µM [2]: < 30%
Activity (HCT-8): inactive
Activity (Bel-7402): inactive
